Assay results published in PMC7044277 (Nature Communications, 2020).
“And” between values parts separate entries of the source, which are not always exact repeats. Equal values may be shown once.

Key:
Assay type in all cases: cell-based
[1] = biological target: 320 non-olfactory GPCRs (Homo sapiens, UniProt P43220)
[2] = biological target: 320 non-olfactory GPCRs (Homo sapiens, UniProt P07550)
[3] = biological target: T1, 320 non-olfactory GPCRs (Homo sapiens, UniProt P47901)
T1 construct: expressed in transfected cells; host or cells: HTLA cells
T1 sequence (P47901 whole entry): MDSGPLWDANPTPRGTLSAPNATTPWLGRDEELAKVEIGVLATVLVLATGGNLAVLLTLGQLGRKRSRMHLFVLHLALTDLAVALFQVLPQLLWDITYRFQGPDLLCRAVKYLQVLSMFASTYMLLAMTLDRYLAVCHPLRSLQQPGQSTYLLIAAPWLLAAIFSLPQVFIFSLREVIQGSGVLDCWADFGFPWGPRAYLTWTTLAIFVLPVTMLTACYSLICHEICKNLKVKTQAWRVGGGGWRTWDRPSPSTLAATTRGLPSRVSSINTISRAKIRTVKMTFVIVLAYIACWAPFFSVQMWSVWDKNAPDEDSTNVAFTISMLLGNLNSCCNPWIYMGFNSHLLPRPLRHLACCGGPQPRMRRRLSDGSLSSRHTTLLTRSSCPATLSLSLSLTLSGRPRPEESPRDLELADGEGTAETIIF

[4] = biological target: T2, 320 non-olfactory GPCRs (Homo sapiens, UniProt Q16602)
T2 construct: expressed in transfected cells; host or cells: HTLA cells
T2 sequence (Q16602 23-461): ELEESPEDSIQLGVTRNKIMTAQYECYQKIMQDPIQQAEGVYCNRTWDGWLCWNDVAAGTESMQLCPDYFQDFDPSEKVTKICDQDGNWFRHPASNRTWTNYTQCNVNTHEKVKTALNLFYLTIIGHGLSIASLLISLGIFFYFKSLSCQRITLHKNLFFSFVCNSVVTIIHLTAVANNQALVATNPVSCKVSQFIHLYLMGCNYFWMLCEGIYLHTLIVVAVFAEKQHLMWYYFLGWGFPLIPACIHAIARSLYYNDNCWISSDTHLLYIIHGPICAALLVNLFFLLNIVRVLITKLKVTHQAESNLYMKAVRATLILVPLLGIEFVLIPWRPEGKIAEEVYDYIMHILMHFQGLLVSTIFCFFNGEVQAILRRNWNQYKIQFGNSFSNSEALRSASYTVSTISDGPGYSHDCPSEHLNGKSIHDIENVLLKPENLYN
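Further: compound tested at 1 µM final concentration.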

Chain of 320 non-olfactory GPCRs (Homo sapiens, UniProt P07550) (P07550 whole entry): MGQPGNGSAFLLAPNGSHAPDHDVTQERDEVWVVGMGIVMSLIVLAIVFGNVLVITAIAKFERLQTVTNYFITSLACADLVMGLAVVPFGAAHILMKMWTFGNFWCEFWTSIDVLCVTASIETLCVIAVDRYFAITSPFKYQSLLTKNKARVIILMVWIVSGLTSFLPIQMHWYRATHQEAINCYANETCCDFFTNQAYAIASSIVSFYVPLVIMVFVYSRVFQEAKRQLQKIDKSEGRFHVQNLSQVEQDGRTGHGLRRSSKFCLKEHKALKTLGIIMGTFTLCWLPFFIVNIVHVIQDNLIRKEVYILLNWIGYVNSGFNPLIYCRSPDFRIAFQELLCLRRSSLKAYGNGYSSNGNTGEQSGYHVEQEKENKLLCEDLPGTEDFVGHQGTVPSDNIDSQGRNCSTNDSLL
Chain of 320 non-olfactory GPCRs (Homo sapiens, UniProt P43220) (P43220 24-463): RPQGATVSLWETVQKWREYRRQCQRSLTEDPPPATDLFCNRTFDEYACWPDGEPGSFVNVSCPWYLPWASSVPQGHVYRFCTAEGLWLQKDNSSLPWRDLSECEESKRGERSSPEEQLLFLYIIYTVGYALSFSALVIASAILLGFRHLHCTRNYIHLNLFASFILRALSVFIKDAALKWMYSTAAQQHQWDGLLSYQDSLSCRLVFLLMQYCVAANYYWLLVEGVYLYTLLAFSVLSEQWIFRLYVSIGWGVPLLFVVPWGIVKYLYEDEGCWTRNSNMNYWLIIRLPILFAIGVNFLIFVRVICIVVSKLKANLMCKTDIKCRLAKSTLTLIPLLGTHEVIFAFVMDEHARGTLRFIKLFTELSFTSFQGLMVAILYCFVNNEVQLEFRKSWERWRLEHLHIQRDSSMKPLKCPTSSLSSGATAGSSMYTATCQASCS

CCOc1cccc2cc(C(C)NCC3(O)CCCCC3)oc12 (stereo not shown) [O4LE6]
Fold of Basal [1]: 0.6919 and 1.003 and 1.157 and 1.2674 | Fold of Basal [2]: 0.7944 and 1.208 and 1.018 and 0.6397 | Fold of Basal [3]: 1.0215 and 1.01 and 1.094 and 0.8472 | Fold of Basal [4]: 0.7801 and 0.8303 and 0.6573 and 0.7619
